Test results published in article PMC10095357, “Inhibition of Soluble Epoxide Hydrolase Activity by Components of Glycyrrhiza uralensis” (International Journal of Molecular Sciences, 2023).
“Also recorded” adds a separate entry of the source. Like-named read-outs stand apart in the source and are kept apart here.

What was measured:
[1] = target: T1, Human recombinant sEH (Homo sapiens, UniProt P34913); assay: sEH assay (fluorescent substrate hydrolysis, inhibitory activity and IC50); assay type: biochemical; settings: for inhibition at 100 µM: read-out: Inhibitory Activity at 100 μM (%); for IC50: sEH inhibition
T1 construct: purchased Cayman Chemical (Ann Arbor, MI, USA) 10011669
T1 sequence (P34913 1-555): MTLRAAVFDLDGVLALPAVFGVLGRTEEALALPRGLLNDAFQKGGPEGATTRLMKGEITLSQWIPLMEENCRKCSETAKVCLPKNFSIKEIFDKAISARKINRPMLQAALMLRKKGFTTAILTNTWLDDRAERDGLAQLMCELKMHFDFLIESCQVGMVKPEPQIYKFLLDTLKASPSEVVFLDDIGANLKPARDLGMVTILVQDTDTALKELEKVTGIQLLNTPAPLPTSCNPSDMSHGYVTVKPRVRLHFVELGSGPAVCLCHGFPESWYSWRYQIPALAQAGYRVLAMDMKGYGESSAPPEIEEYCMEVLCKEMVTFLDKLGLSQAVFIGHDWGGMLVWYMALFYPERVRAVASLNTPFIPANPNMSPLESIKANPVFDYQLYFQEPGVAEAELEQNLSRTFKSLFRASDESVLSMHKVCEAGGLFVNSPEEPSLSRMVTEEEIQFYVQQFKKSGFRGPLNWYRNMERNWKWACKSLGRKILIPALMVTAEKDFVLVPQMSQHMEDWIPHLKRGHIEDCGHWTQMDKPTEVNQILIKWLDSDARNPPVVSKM

[2] = target: T1, Human recombinant sEH; assay: sEH enzyme kinetics (Lineweaver–Burk and Dixon plots); assay type: biochemical; settings: for Ki: Dixon plot analysis; for Binding Mode: Lineweaver–Burk plot
[3] = compound at 100 μM, tested three times

inhibition at 100 µM [1, 3] [%] | IC50 [1] [µM] | Ki [2] [µM] | sEH inhibitory effect (in words) ([1]; conclusion statement) | Molecule | Binding Mode [2] | Inhibitory Activity at 100 μM (%) [1, 3] [%] | sEH inhibitory effect (in words) [1] | inhibition at 100 µM [1] [%]
60.7 ± 1.3 | 35.7 ± 0.7 | 54.4 |  | COc1ccc(-c2coc3cc(O[C@@H]4O[C@H](CO)[C@@H](O)[C@H](O)[C@H]4O)ccc3c2=O)cc1 [Compound 8, ononin] | competitive inhibitors |  |  | 
> 100 | 1.9 ± 0.2 | 2 | potent effect | COc1c(CC=C(C)C)c(O)cc2oc(=O)c(-c3ccc(O)cc3O)cc12 [Compound 10, glycycoumarin] | competitive inhibitors |  |  | 
 |  |  |  | isoliquiritin apioside [Compound 6] | Noncompetitive | 79.3 ± 1.4 |  | 
 | 17.6 ± 0.6 | 24.2 |  | O=C(/C=C/c1ccc(O)cc1)c1ccc(O)cc1O [Compound 4, isoliquiritigenin] | Noncompetitive |  |  | 
68.4 ± 3.1 | 85.7 ± 1.2 | 75.6 | moderate inhibitory effects | CC(C)=CCc1cc(-c2coc3cc(O)c(CC=C(C)C)c(O)c3c2=O)cc(O)c1O [Compound 11, isoangustone A] | noncompetitive inhibitors; also recorded: non-competitive |  |  | 
85.1 ± 0.3 | 16.2 ± 0.3 | 19.8 |  | COc1cc(O)ccc1C(=O)/C=C/c1ccc(O)cc1 [Compound 7, 2′-methoxyisoliquiritigenin] | competitive inhibitors |  |  | 
46.8 ± 0.8 |  |  |  | O=C1C[C@@H](c2ccc(O[C@@H]3O[C@H](CO)[C@@H](O)[C@H](O)[C@H]3O)cc2)Oc2cc(O)ccc21 [Compound 2, liquiritin] |  |  |  | 
18.4 |  |  | lacked such an effect | CC1(C)[C@@H](O[C@H]2O[C@H](C(=O)O)[C@@H](O)[C@H](O)[C@H]2O[C@@H]2O[C@H](C(=O)O)[C@@H](O)[C@H](O)[C@H]2O)CC[C@]2(C)[C@H]3C(=O)C=C4[C@@H]5C[C@@](C)(C(=O)O)CC[C@]5(C)CC[C@@]4(C)[C@]3(C)CC[C@@H]12 [Glycyrrhizin, reference compound] |  |  |  | 
69.5 ± 0.5 | 42.5 ± 1.5 | 41.1 |  | COc1c(CC=C(C)C)c(O)cc2oc(=O)c3c4ccc(O)cc4oc3c12 [Compound 9, glycyrol] | noncompetitive inhibitors; also recorded: non-competitive |  |  | 
 |  |  |  | liquiritin apioside [Compound 3] | competitive inhibitors | 57.6 ± 1.1 |  | 

Molecule | inhibition at 100 µM [1, 3] [%] | IC50 [1] [µM] | Ki [2] [µM] | sEH inhibitory effect (in words) ([1]; conclusion statement) | Binding Mode [2] | Inhibitory Activity at 100 μM (%) [1, 3] [%] | sEH inhibitory effect (in words) [1] | inhibition at 100 µM [1] [%]
O=C(/C=C/c1ccc(O[C@@H]2O[C@H](CO)[C@@H](O)[C@H](O)[C@H]2O)cc1)c1ccc(O)cc1O [Compound 5, isoliquiritin] | 80.2 ± 0.3 | 25.8 ± 0.2 | 48.8 |  | Noncompetitive |  |  | 
O=C1C[C@@H](c2ccc(O)cc2)Oc2cc(O)ccc21 [Compound 1, liquiritigenin] |  | 40.1 ± 1.2 | 63.1 |  | noncompetitive inhibitors; also recorded: non-competitive |  | moderate inhibitory effects | 61.5 ± 1.2
